# Source: PubChem BioAssay (NCI)
# Several values for one entry are separate records, joined by “and”; a condition that tells them apart may be missing. Equal values may be shown once.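 Results reflect a 48-hour exposure of cells in 96-well plates to compound at five concentrations. GI50: concentration for 50% inhibition of growth. At the TGI there is no net growth.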
# Assays:
# Assay in all cases: inhibition of tumour cell growth, NCI panel, 48 h
# OVCAR-4 ovarian = test system: OVCAR-4 ovarian
# SK-MEL-5 melanoma = test system: SK-MEL-5 melanoma
# U251 CNS = test system: U251 CNS
# SNB-75 CNS = test system: SNB-75 CNS
# SK-OV-3 ovarian = test system: SK-OV-3 ovarian
# SF-268 CNS = test system: SF-268 CNS
# MDA-MB-231 breast = test system: MDA-MB-231 breast
# SF-539 CNS = test system: SF-539 CNS
# OVCAR-3 ovarian = test system: OVCAR-3 ovarian
# HL-60(TB) leukemia = test system: HL-60(TB) leukemia
Compound,TGI (OVCAR-4 ovarian) [µM],TGI (SK-MEL-5 melanoma) [µM],TGI (U251 CNS) [µM],TGI (SNB-75 CNS) [µM],TGI (SK-OV-3 ovarian) [µM],TGI (SF-268 CNS) [µM],TGI (MDA-MB-231 breast) [µM],TGI (SF-539 CNS) [µM],TGI (OVCAR-3 ovarian) [µM],TGI (HL-60(TB) leukemia),GI50 (U251 CNS) [µM],GI50 (SF-268 CNS) [µM],GI50 (MDA-MB-231 breast) [µM],GI50 (SNB-75 CNS),GI50 (OVCAR-3 ovarian),GI50 (HL-60(TB) leukemia)
Nn1c(CCCCCCCCc2nnc(COc3c(O)ccc4ccccc34)n2N)nnc1COc1c(O)ccc2ccccc12,> 100,> 100,> 100,> 100,> 100,> 100,> 100,,,,,,,,,
C/C(=N/NC(N)=S)c1ccc2ccccc2c1,> 100,> 100,80.4,96.3,51.6,> 100,,44.4,> 100,> 100 µM,,,,,,
COc1ccc(-c2cc(=O)c3cc4c(cc3[nH]2)OCO4)c(OC)c1OC,> 100,> 100,> 100,82.2,> 100,> 100,,> 100,> 100,> 100 µM,,,,,,
O=C1CCC(=Nc2ccc(Cl)cc2)N1C(=O)COc1ccc(OCC(=O)N2C(=O)CSC2=Nc2ccc(Cl)cc2)cc1,> 100,> 100,> 100,91.9,> 100,> 100,> 100,,> 100,> 100 µM,,,,,,
COP(=O)(O)/C=C/C(NC(=O)C(Cl)(Cl)Cl)c1ccccc1 (stereo unspecified),> 100,> 100,> 100,> 100,> 100,> 100,> 100,,> 100,> 100 µM,,,,,,
c1ccc2c(c1)[nH]c1nc3cc(-c4ccc5nc6c(nc5c4)[nH]c4ccccc46)ccc3nc12,> 100,> 100,> 100,> 100,> 100,> 100,97,,,> 100 µM,,,,,,
CCCCCCCCCC[C@H](O)[C@H]1CC[C@H]([C@H]2CC[C@H]([C@H](O)CC[C@H](O)CCCCCCC[C@@H](O)CC3=C[C@H](C)OC3=O)O2)O1,> 100,3.93,> 100,79.7,,> 100,> 100,> 100,> 100,,> 100,> 100,> 100,,,
COc1ccc(CC(CO)NC(=O)OCc2ccccc2)cc1Oc1ccc(CC(CO)NC(=O)OCc2ccccc2)cc1 (stereo unspecified),> 100,> 100,63.9,11.7,28.8,29.4,36,,27.4,,,,,,,
N#Cc1c(-c2ccccc2)/c(=C\Nc2ccc(Cl)cc2)c(=O)n2c1nc1ccccc12,> 100,> 100,> 100,> 100,> 100,> 100,> 100,> 100,> 100,,,,,,,
CN(C)C(CN)CC1=C(CC(CN)N(C)C)CCC1 (stereo unspecified),> 100,> 100,> 100,> 100,> 100,> 100,,> 100,> 100,> 100 µM,,,,,,
Cc1cn2c(/C=C3/C(=O)Nc4cccc(Cl)c43)c(Cl)nc2s1,> 100,,27.3,43.6,> 100,> 100,> 100,,> 100,> 100 µM,,,,,,
CCC12C[N+]3([O-])CCc4c([nH]c5ccccc45)C(C(=O)OC)(c4cc5c(cc4OC)N(C)C4C(O)(C(=O)OC)C(OC(C)=O)C6(CC)C=CCN7CCC54C76)CC(C3)C1O2 (stereo unspecified),45.9,12,86.1,0.952,7.34,28.8,,0.821,1.3,,,,,,,
COC(=O)c1csnn1,,> 100,> 100,,> 100,> 100,,> 100,> 100,> 100 µM,,,,,,
NC(=O)C(=O)N/N=C1/c2ccccc2CC1C1(O)C(=O)Nc2c(Cl)cc(Cl)cc21 (stereo unspecified),> 100,> 100,> 100,> 100,> 100,> 100,,> 100,> 100,> 100 µM,,,,,,
C=C(C)CCC(=O)[C@](C)(O)[C@H]1[C@H](O)C[C@@]2(C)[C@@H]3CCc4c(cc(OC5OC(CO)C(O)C(O)C5O)c(O)c4C)C3(C)C(=O)C[C@]12C (stereo partly specified),> 100,> 100,> 100,> 100,> 100,> 100,> 100,> 100,> 100,,,,,,,
CCOC(=O)C1=C(C(C)=O)CSC(c2ccccc2)=N1,> 100,> 100,> 100,> 100,> 100,> 100,,> 100,> 100,> 100 µM,,,,,,
COc1cc(/C=C/C(=O)O)ccc1C(=O)O/C=C/c1ccccc1,> 100,> 100,> 100,> 100,> 100,> 100,,> 100,> 100,> 100 µM,,,,,,

Compound,TGI (OVCAR-4 ovarian) [µM],TGI (SK-MEL-5 melanoma) [µM],TGI (U251 CNS) [µM],TGI (SNB-75 CNS) [µM],TGI (SK-OV-3 ovarian) [µM],TGI (SF-268 CNS) [µM],TGI (MDA-MB-231 breast) [µM],TGI (SF-539 CNS) [µM],TGI (OVCAR-3 ovarian) [µM],TGI (HL-60(TB) leukemia),GI50 (U251 CNS) [µM],GI50 (SF-268 CNS) [µM],GI50 (MDA-MB-231 breast) [µM],GI50 (SNB-75 CNS),GI50 (OVCAR-3 ovarian),GI50 (HL-60(TB) leukemia)
O=c1cc(/C=C/c2ccc(O)c(O)c2)oc(/C=C/c2ccc(O)c(O)c2)c1,11.7,13.2,9.57,15.3,21.8,13.2,21.6,6.73,10.8,,,,,,,
O=c1c2c([nH]c3cc4c(cc13)OCO4)-c1ccccc1CC2,> 100,> 100,> 100,> 100,,> 100,,> 100,> 100,> 100 µM,,,,,,
COc1cc2c(cc1OC)C(N(C)C)C(c1ccccc1)=C2Cl (stereo unspecified),65,,30.3,48.7,45.9,,,37.7,40.8,65.8 µM,,,,,,
COc1cc(OCc2ccc3oc(=O)c(-c4ccccc4)nc3c2)cc(OC)c1OC,> 100,> 100,> 100,> 100,> 100,> 100,> 100,> 100,> 100,,,,,,,
CCCCn1c2c(n(CCCC)c1=S)-c1c(n(CCCC)c(=S)n1CCCC)S[Se][Se]S2,> 37.4,19.6,16.9,31.5,55.1,> 83.4,7.59,12.5,7.84,,,,,,,
C1CCSCCCCSCCCCSCCCCSC1,> 100,> 100,> 100,> 100,> 100,> 100,> 100,> 100,> 100,,,,,,,
OC[C@@H](O)[C@H]1NC[C@@H](O)[C@H]1O,> 100,> 100,> 100,> 100,> 100,> 100,,> 100,> 100,> 100 µM,,,,,,
CC(C)(C)C1=Cc2cc3cc(C(C)(C)C)[nH]c(=O)c3cc2S(=O)(=O)N1,> 100,,34,> 100,> 100,95.1,,,59.3,43.1 µM,,,,,,
CC(=O)NS(=O)(=O)c1ccc(NC(=O)c2c3ccccc3nc3ccccc23)cc1,> 100,> 100,> 100,> 100,> 100,> 100,> 100,> 100,> 100,,,,,,,
Cc1cc2c(C)cc(=O)[nH]c2cc1N,> 100,> 100,> 100,> 100,,,> 100,> 100,> 100,,,,,,,
CSC1CC2C(CC1(C)O)C2(C)C (stereo unspecified),> 100,> 100,> 100,> 100,> 100,> 100,,> 100,> 100,70.5 µM and > 100 µM,,,,> 100 µM and 47.9 µM,38.5 µM and > 100 µM,19 µM and > 100 µM
CCOC(=O)c1[nH]cc(C)c1-c1ccn(-c2ccccc2)c1,> 100,63.9,> 100,49.5,> 100,> 100,,> 100,> 100,,,,,,,
C/C(=C\c1ccccc1)C(=O)CCN1CCOCC1,32.9,> 60.1,30.7,> 66.1,> 100,> 85.6,,34.6,34.2,> 74.3 µM,,,,,,
COc1cc(C2c3cc4c(cc3OC(NN=C(C)C)C2C)OCO4)cc(OC)c1O (stereo unspecified),> 100,38.1,> 100,48.5,,> 100,> 100,56.1,> 100,,,,,,,
COc1cc(/C=C2\C(=O)N(C(=O)Cc3ccccc3)N=C2C)ccc1O,> 100,> 100,,> 100,,> 100,,> 100,> 100,> 100 µM,,,,,,
COc1ccccc1NC(=O)CC(=O)N1N=C(C)C(N=Nc2ccc(S(N)(=O)=O)cc2)C1=O (stereo unspecified),> 100,> 100,> 100,> 100,> 100,> 100,,> 100,> 100,,,,,,,
COCOc1ccc(OC)cc1,> 100,> 100,> 100,> 100,> 100,> 100,,> 100,> 100,> 100 µM,,,,,,
